In publication PMC5161551 (Nature chemical biology, 2016):

How the values were obtained:
[1] = test system: complement component C3, lactoferrin, and aquaporin 5; test: Uterine expression of E2-regulated genes; type: in vivo, mouse; settings: ovariectomized mice, 4 days
[2] = test system: IL-6; test: TNFα-induced IL-6 secretion in MCF-7 cells; type: cell-based, human; settings: MCF-7, 10 ng/ml TNFα, ligand 10 μM, 24 hr
[3] = test system: uterus of ovariectomized mice; test: Mouse uterotrophic assay; type: in vivo; settings: 240 μg in combination with E2 (10 ng), sc, 4 days
[4] = molecular target: T1, ERα (Mus musculus, UniProt P19785); test: ERα+ cells in mouse uterus; type: in vivo; settings: mouse uterine tissue after the uterotrophic assay
T1 sequence (P19785 1-599): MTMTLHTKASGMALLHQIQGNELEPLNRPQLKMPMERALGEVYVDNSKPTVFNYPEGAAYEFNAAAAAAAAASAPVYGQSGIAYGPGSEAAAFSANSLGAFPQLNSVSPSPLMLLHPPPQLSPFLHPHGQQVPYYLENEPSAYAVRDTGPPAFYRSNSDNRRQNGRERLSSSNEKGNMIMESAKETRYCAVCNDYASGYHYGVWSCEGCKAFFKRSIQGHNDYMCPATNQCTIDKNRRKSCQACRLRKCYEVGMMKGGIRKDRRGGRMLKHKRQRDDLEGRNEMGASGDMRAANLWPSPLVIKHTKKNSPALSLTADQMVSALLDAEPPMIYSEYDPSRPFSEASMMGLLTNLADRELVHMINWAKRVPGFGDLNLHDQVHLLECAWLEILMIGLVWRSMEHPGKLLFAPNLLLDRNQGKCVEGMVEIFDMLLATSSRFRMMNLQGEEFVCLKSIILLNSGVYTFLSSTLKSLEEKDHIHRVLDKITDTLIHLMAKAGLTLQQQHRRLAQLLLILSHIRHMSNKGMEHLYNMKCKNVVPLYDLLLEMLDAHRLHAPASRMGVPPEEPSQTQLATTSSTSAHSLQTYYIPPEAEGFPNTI

C[C@]12CC[C@@H]3c4ccc(O)cc4C[C@@H](CCCCCCCCC[S+]([O-])CCCC(F)(F)C(F)(F)F)[C@H]3[C@@H]1CC[C@@H]2O (some centres unmarked) [fulvestrant]
effect on E2-stimulated expression of genes in uterus ([1]; 240 μg in combination with E2 (10 ng)): markedly reduced the E2-stimulated expression levels of these genes | expression of E2-induced genes in uterus (compound alone) ([1]; 240 μg): failed to increase the expression of E2-induced genes | inhibition of TNFα-induced IL-6 secretion [2]: did not inhibit IL-6 secretion | effect on E2-stimulated uterine growth [3]: significantly reduced the E2-stimulated uterine growth | ERα expression in uterus (ERα+ cells) [4]: robustly inhibited ERα expression
